Columns and labels:
S. aureus = experiment: Zone of inhibition test on TSA plates; type: cell-based
Experimental: (§1) A zone of inhibition test is conducted on several materials: zinc oxide and amino acid hydrohalide alone and a mixture formed from zinc oxide and amino acid hydrohalide. The method involves making a lawn of freshly prepared bacterial culture on TSA (trypticase soy agar) plates. Sterile filter paper discs are seeded with 20 μl of test sample (supernatant or mixture). Sample-coated filter paper discs are air dried and applied onto the bacterial lawn on TSA plates. Plates are incubated for 20 hours at 37° C.

C. minutissimum = experiment: Zone of inhibition test on TSA plates; type: cell-based
Experimental: as §1

C. xerosis = experiment: Zone of inhibition test on TSA plates; type: cell-based
Experimental: as §1

S. epider. = experiment: Zone of inhibition test on TSA plates; type: cell-based
Experimental: as §1

[1] = molecular target: Bovine Serum Albumin (BSA) (Bos taurus, UniProt P02769); experiment: Flocculation of ZLC in the presence of protein (turbidity, pH); settings: ZLC about 15 mg/ml, 5 hours at 37° C.
Chain of Bovine Serum Albumin (BSA) (P02769 25-607): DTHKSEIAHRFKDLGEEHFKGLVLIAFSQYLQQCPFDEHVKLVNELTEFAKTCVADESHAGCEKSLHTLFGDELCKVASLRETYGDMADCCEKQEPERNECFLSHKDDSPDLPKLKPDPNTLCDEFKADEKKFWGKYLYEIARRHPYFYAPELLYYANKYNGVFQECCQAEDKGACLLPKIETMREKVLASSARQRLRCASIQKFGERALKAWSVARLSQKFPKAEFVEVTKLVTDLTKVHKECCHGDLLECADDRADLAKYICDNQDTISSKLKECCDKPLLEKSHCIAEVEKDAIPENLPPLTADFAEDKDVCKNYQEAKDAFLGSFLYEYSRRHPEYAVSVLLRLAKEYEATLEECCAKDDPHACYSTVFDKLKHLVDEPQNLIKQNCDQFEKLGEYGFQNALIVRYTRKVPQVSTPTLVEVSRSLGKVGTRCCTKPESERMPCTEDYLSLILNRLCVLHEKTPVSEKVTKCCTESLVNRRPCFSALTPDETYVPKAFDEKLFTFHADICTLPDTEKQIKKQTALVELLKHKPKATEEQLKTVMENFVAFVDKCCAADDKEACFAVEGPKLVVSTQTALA
Experimental: Turbidity and pH of solutions are measured 5 hours after the mixtures were placed in a 37° C. oven, and the results are shown in Table 6.

[2] = Hydrolysis reaction: pH and turbidity of diluted ZLC solutions before and after aging; type: physicochemical; settings: for pH after aging / turbidity after aging: aged at 37° C. over 5 hours
Experimental: A 185 mg/ml solution of ZLC is prepared and diluted several-fold and aged in a 37° C. oven over 5 hours for turbidity studies. […] Turbidity of the solutions is measured using a nephelometer, results being given in nephelometric turbidity units (NTU).
The precipitates formed in the 8×, 16× and 32× diluted solutions are collected by centrifugation and identified as crystalline ZnO by PXRD. From the supernatant, a single crystal is grown and shown by X-ray diffraction to be Lysine Monohydrochloride Dihydrate (Lysine.HCl.2H2O).

[3] = general description; cited from earlier work
[4] = Table 3, sample form not stated
[5] = sample 1: DI water, 0% BSA, pH 6.4

For N=C(N)NCCC[C@H](N)C(=O)O [Arginine 4%, arginine], the “Zone of Inhibition” value (S. aureus; [4]) was 0 mm and the “Zone of Inhibition” value (C. minutissimum; [4]) was 0 mm.
For NCCCC[C@H](N)C(=O)O [Lysine 4%, lysine], the “Zone of Inhibition” value (S. aureus; [4]) was 0 mm and the “Zone of Inhibition” value (C. minutissimum; [4]) was 0 mm.
With Cl.NCCCC[C@H](N)C(=O)O [Lysine-HCl 23.2%, lysine hydrochloride] the “Zone of Inhibition” value (C. xerosis; Dry Sample, As is) was 0 mm, the “Zone of Inhibition” value (C. xerosis; Wet Sample, As is) was 0 mm and the “Zone of Inhibition” value (S. aureus; Dry Sample, As is) was 0 mm. For the same compound, the “Zone of Inhibition” value (S. aureus; [4]) was 0 mm, the “Zone of Inhibition” value (S. aureus; Wet Sample, As is) was 0 mm and the “Zone of Inhibition” value (C. minutissimum; [4]) was 0 mm. The “Zone of Inhibition” value (S. epider.; Dry Sample, As is) was 0 mm and the “Zone of Inhibition” value (S. epider.; Wet Sample, As is) was 0 mm.
In the case of [Cl-].[Cl-].[OH-].[OH-].[OH-].[OH-].[OH-].[OH-].[OH-].[OH-].[Zn+2].[Zn+2].[Zn+2].[Zn+2].[Zn+2] [TBZC (4%), zinc chloride hydroxide monohydrate], the “Zone of Inhibition” value (C. minutissimum; Table 3, Mixture) is reported as 7 mm and the “Zone of Inhibition” value (C. minutissimum; Table 3, Supernat) is reported as 7 mm.
For NCCCCC(N)C(=O)O.NCCCCC(N)C(=O)O.O.O.[Cl-].[Cl-].[Zn+2] (stereo not drawn) [ZLC, [Zn(Lysine)2Cl]^+Cl^−.2H2O], the Turbidity [1, 5] was 357 NTU, the pH [1, 5] was 8 and the Turbidity ([1]; sample 2: 1% BSA, pH 7.2) was >1000 NTU. The pH ([1]; sample 2: 1% BSA, pH 7.2) was 8.2, the Turbidity ([1]; sample 3: 1% BSA, pH adjusted to 5.1) was >1000 NTU and the initial turbidity ([2]; 5.78 mg/ml) was 40.1 NTU. For the same compound, the pH after aging ([2]; 5.78 mg/ml) was 8, the turbidity after aging ([2]; 5.78 mg/ml) was >1000 NTU and the initial turbidity ([2]; 11.56 mg/ml) was 14.8 NTU. The pH after aging ([2]; 11.56 mg/ml) was 7.8, the turbidity after aging ([2]; 11.56 mg/ml) was >1000 NTU and the initial turbidity ([2]; 23.125 mg/ml) was 0.7 NTU. The pH after aging ([2]; 23.125 mg/ml) was 7.7, the turbidity after aging ([2]; 23.125 mg/ml) was 247.4 NTU and the initial turbidity ([2]; 46.25 mg/ml) was 1.5 NTU. The pH after aging ([2]; 46.25 mg/ml) was 7.4, the turbidity after aging ([2]; 46.25 mg/ml) was 2.8 NTU and the initial turbidity ([2]; 92.5 mg/ml) was 2.8 NTU. For the same compound, the pH after aging ([2]; 92.5 mg/ml) was 7, the turbidity after aging ([2]; 92.5 mg/ml) was 2.6 NTU and the initial turbidity ([2]; 185 mg/ml) was 4.7 NTU. The pH after aging ([2]; 185 mg/ml) was 6.8, the turbidity after aging ([2]; 185 mg/ml) was 4.1 NTU and the “stability of the complex upon dilution” value ([2]; 8×, 16× and 32× diluted solutions, precipitate identified as crystalline ZnO by PXRD) was “disassociates upon dilution, with consequent precipitation of zinc oxide”.
For [O]=[Zn] [ZnO(4%), zinc oxide], the solubility in water [3] is given as “insoluble in water”, the “Zone of Inhibition” value (C. xerosis; Dry Sample, Mixture) is given as 0 mm and the “Zone of Inhibition” value (C. xerosis; Dry Sample, Supernatant) is given as 0 mm. For the same compound, the “Zone of Inhibition” value (C. xerosis; Wet Sample, Mixture) was 0 mm, the “Zone of Inhibition” value (C. xerosis; Wet Sample, Supernatant) was 0 mm and the “Zone of Inhibition” value (S. aureus; Dry Sample, Mixture) was 7 mm. The “Zone of Inhibition” value (S. aureus; Dry Sample, Supernatant) was 0 mm, the “Zone of Inhibition” value (S. aureus; Wet Sample, Mixture) was 7 mm and the “Zone of Inhibition” value (S. aureus; Wet Sample, Supernatant) was 0 mm. For the same compound, the “Zone of Inhibition” value (S. epider.; Dry Sample, Mixture) was 10 mm, the “Zone of Inhibition” value (S. epider.; Dry Sample, Supernatant) was 0 mm and the “Zone of Inhibition” value (S. epider.; Wet Sample, Mixture) was 12 mm. The “Zone of Inhibition” value (S. epider.; Wet Sample, Supernatant) was 0 mm.

Reference: US9943473B2, “Zinc lysine halide complex” (Colgate-Palmolive Company, priority 2012, dated 2018)
